In assay [1] the target is T1, inactive SHP2 catalytic domain Loopmut (K364E) (Homo sapiens, UniProt Q06124, C459S/K364E).
T1 construct: SHP2 K364E (Loopmut); 219-528 + C459S; His6 (N); made in house; host or cells: E. coli BL21 (DE3)
T1 sequence (Q06124 219-528 K364E/C459S): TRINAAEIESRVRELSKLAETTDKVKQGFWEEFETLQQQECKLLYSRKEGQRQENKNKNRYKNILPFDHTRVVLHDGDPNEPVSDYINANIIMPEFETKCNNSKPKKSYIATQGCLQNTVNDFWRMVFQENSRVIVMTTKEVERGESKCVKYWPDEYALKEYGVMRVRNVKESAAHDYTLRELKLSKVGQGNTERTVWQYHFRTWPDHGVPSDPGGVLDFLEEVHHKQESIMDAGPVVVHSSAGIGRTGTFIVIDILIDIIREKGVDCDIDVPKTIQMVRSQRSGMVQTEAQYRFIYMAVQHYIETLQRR
As to the kind of experiment: Fluorescence polarization titrations, SHP2 Loopmut. Particulars: competitive FP titration vs CF-ppIRS1 100 nM, protein fixed; n = 3 technical replicates. It is filed as binding. From the text:
The two SH2 domains of PI3KR1 (UniProt P27986; nSH2: 321−433 cSH2: 614–724) were cloned from HEK293T cDNA pool, and subsequently ligated into a modified pET vector encoding maltose binding protein (MBP) tag on the N-terminal and a hexa-His tag on the C-terminal end of the construct. Similarly, the catalytic, tyrosine phosphatase domains of PTPRε (P23469 first domain: 107–399) and PTP1B (P18031; 1–229) were cloned from a HEK293T cDNA pool, and inserted into a pBH4 vector encoding an N-terminal His6 tag (for the final binding experiments, an MBP-tagged version of PTPRε was employed). […] Surface mutants of SHP2 were constructed from the SHP2-C459S plasmid, using the QuickChange protocol. The D425A and H426A catalytic site mutants and all enzymatically active surface mutants were generated similarly, but from the plasmid encoding the wild-type catalytic domain of SHP2. Wild-type C-terminal FLAG-tagged human IRS1 was cloned between HindIII-NotI sites of pcDNA3.1(+) vector (#V79020 Invitrogen, Waltham MA USA). Ser/Ala mutant IRS1 was generated by replacing the region of S616/S636/S666/S736 positions with a cassette carrying S616A/S636A/S666A/S736A mutations. All constructs were validated by complete Sanger sequencing before protein expression and purification. The oligonucleotide sequences used are shown on Supplementary table 4.
Fluorescence polarization (FP) assays were performed as follows: In direct titration experiments, protein concentration was varied in an 1/2 or 2/3 dilution series (90 µl protein+ 45 µl mix), while concentration of the reporter peptide (CF-ppIRS1) was kept constant at 100 nM. In competitive titrations, the labelled CF-ppIRS1 peptide and protein were both fixed (at 50–80% saturation) and the unlabelled competitor peptide concentration was varied. Fluorescence polarization was always measured in triplicates, on black Corning low volume round bottom 384-well plates (with 10 ul volumes), using a BioTek Cytatation 5 reader, with the green fluorescent protein (GFP) cube filter set (ex: 485/20, em: 528/20, gain: 50, height: 7.5). Fluorescence polarization data was evaluated on Origin 2018. The dissociation constants (Kd) were determined by using the appropriate quadratic and cubic equations inserted as a user-defined function and applying nonlinear fit until convergence. The fitting formulae are shown at Supplementary note 1. Kd ratio distributions for Fig. 6 were calculated using a Monte-Carlo approach (Supplementary note 2).
(§1) Supplementary note 1. Curve fitting of fluorescence polarization (FP) measurements.
(§2) To evaluate polarization values from direct and competitive titrations, we used the following fitting formulae in Origin 2018, as detailed below.
(§3) Direct titration curves were fitted according to the following formula: […]
(§4) Where Imin is the minimal anisotropy, Imax is the (asymptotically estimated) maximal intensity. K0 is the starting concentration of the protein, while T0 is the (fixed) concentration of the labelled peptide and Kd is the dissociation constant.
(§5) Competitive titration curves were fitted with a different formula (In addition to those defined above, constants KdT KdB B0 T0 and D0 here refer to the Kd derived from the direct titration, the unknown Kd of the analyte, the labelled peptide concentration, the competitor peptide concentration as well as the protein concentration, respectively).
(§6) The ± sign refers to two different scenarios, depending on the sign of discriminant (KdT > KdB or […]). For unknown analytes, the choice of sign is not arbitrary, as the fitting will not converge unless the appropriate formula is chosen: […]
(§7) Where A, B and C correspond to the following expressions: […]

In assay [2] the target is T2, PTPRε first phosphatase domain, C335S (Homo sapiens, UniProt P23469, C335S).
T2 construct: PTPRε (P23469 first domain: 107–399); MBP; made in house; host or cells: E. coli BL21 (DE3)
As to the kind of experiment: biochemical. It is filed as binding. The settings on record: competitive FP titration vs CF-ppIRS1 100 nM, protein fixed, unlabelled peptide varied; n = 3 technical replicates.
Description: The two SH2 domains of PI3KR1 (UniProt P27986; nSH2: 321−433 cSH2: 614–724) were cloned from HEK293T cDNA pool, and subsequently ligated into a modified pET vector encoding maltose binding protein (MBP) tag on the N-terminal and a hexa-His tag on the C-terminal end of the construct. Similarly, the catalytic, tyrosine phosphatase domains of PTPRε (P23469 first domain: 107–399) and PTP1B (P18031; 1–229) were cloned from a HEK293T cDNA pool, and inserted into a pBH4 vector encoding an N-terminal His6 tag (for the final binding experiments, an MBP-tagged version of PTPRε was employed). […] Wild-type C-terminal FLAG-tagged human IRS1 was cloned between HindIII-NotI sites of pcDNA3.1(+) vector (#V79020 Invitrogen, Waltham MA USA). Ser/Ala mutant IRS1 was generated by replacing the region of S616/S636/S666/S736 positions with a cassette carrying S616A/S636A/S666A/S736A mutations. All constructs were validated by complete Sanger sequencing before protein expression and purification. The oligonucleotide sequences used are shown on Supplementary table 4.
Fluorescence polarization was always measured in triplicates, on black Corning low volume round bottom 384-well plates (with 10 ul volumes), using a BioTek Cytatation 5 reader, with the green fluorescent protein (GFP) cube filter set (ex: 485/20, em: 528/20, gain: 50, height: 7.5). Fluorescence polarization data was evaluated on Origin 2018. The dissociation constants (Kd) were determined by using the appropriate quadratic and cubic equations inserted as a user-defined function and applying nonlinear fit until convergence. The fitting formulae are shown at Supplementary note 1. Kd ratio distributions for Fig. 6 were calculated using a Monte-Carlo approach (Supplementary note 2).
as §1, §2, §3, §4, §5, §6, §7

We go through six compounds from publication PMC9481563, “Structural insights into the pSer/pThr dependent regulation of the SHP2 tyrosine phosphatase in insulin and CD28 signaling” (Nature Communications, 2022).

T2 sequence (P23469 107-399 C335S): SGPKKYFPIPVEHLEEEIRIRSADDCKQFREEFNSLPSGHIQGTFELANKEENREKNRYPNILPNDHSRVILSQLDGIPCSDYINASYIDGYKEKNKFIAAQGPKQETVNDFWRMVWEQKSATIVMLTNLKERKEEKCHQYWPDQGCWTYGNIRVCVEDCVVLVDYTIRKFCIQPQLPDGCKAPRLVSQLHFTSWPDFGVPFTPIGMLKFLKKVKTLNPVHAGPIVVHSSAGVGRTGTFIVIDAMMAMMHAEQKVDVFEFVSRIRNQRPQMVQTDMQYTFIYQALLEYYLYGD

`CC[C@H](C)[C@H](NC(=O)[C@H](CC(N)=O)NC(=O)[C@@H](NC(=O)[C@H](Cc1ccc(OP(=O)(O)O)cc1)NC(=O)[C@H](CCC(=O)O)NC(=O)CNC(=O)[C@@H]1CCCN1C(=O)[C@H](CO)NC(=O)[C@H](CCCCN)NC(=O)[C@@H]1CCCN1C(=O)[C@@H](N)CCC(=O)O)C(C)C)C(=O)N[C@@H](CCC(=O)O)C(=O)N[C@@H](Cc1ccccc1)C(=O)O` [p0SRev-IRS1] gave a dissociation constant (Kd) in assay [1] of 7.73 ± 1.08 µM.

As for `CSCC[C@H](NC(=O)[C@@H]1CCCN1C(=O)[C@H](CCSC)NC(=O)[C@H](Cc1ccc(OP(=O)(O)O)cc1)NC(=O)[C@H](CC(=O)O)NC(=O)CNC(=O)[C@H](CO)NC(=O)CNC(=O)[C@H](CCCCN)NC(=O)[C@H](CCCNC(=N)N)NC(=O)CN)C(=O)N[C@@H](COP(=O)(O)O)C(=O)N1CCC[C@H]1C(=O)N[C@@H](CCCCN)C(=O)N[C@@H](CO)C(=O)O` [ppIRS1], the dissociation constant (Kd) in assay [1] was determined as 3.01 ± 0.42 µM; in assay [2] it was 16.5 ± 1.7 µM. Also, in assay [1], the “Kd (competitive titration)” value is reported as “bound stronger”.

In assay [1], `CC[C@H](C)[C@H](NC(=O)[C@H](CC(N)=O)NC(=O)[C@@H](NC(=O)[C@H](Cc1ccc(OP(=O)(O)O)cc1)NC(=O)[C@H](CCC(=O)O)NC(=O)CNC(=O)[C@@H]1CCCN1C(=O)[C@H](COP(=O)(O)O)NC(=O)[C@H](CCCCN)NC(=O)[C@@H]1CCCN1C(=O)[C@@H](N)CCC(=O)O)C(C)C)C(=O)N[C@@H](CCC(=O)O)C(=O)N[C@@H](Cc1ccccc1)C(=O)O` [ppSRev-IRS1] had a Kd of 0.99 ± 0.07 µM.

Turning to `CSCC[C@H](NC(=O)[C@H](Cc1ccc(OP(=O)(O)O)cc1)NC(=O)[C@H](CC(=O)O)NC(=O)[C@H](CO)NC(=O)[C@H](Cc1c[nH]cn1)NC(=O)[C@H](CC(C)C)NC(=O)[C@H](CC(C)C)NC(=O)[C@H](CCCNC(=N)N)NC(=O)[C@H](CO)NC(=O)[C@@H](N)CCCNC(=N)N)C(=O)N[C@@H](CC(N)=O)C(=O)N[C@@H](CCSC)C(=O)N[C@H](C(=O)N1CCC[C@H]1C(=O)N[C@@H](CCCNC(=N)N)C(=O)N[C@@H](CCCNC(=N)N)C(=O)O)[C@@H](C)OP(=O)(O)O` [ppCD28], the Kd in assay [1] worked out at 6.66 ± 0.38 µM; in assay [2] it was 1.24 ± 0.08 µM.

Take `CSCC[C@H](NC(=O)[C@H](Cc1ccc(OP(=O)(O)O)cc1)NC(=O)[C@H](CC(=O)O)NC(=O)[C@H](CO)NC(=O)[C@H](Cc1c[nH]cn1)NC(=O)[C@H](CC(C)C)NC(=O)[C@H](CC(C)C)NC(=O)[C@H](CCCNC(=N)N)NC(=O)[C@H](CO)NC(=O)[C@@H](N)CCCNC(=N)N)C(=O)N[C@@H](CC(N)=O)C(=O)N[C@@H](CCSC)C(=O)N[C@H](C(=O)N1CCC[C@H]1C(=O)N[C@@H](CCCNC(=N)N)C(=O)N[C@@H](CCCNC(=N)N)C(=O)O)[C@@H](C)O` [p0CD28]: the figures for the dissociation constant Kd in assay [1] and in assay [2] were 20.5 ± 1.53 µM and 1.18 ± 0.1 µM, respectively.

In the case of `CSCC[C@H](NC(=O)[C@@H]1CCCN1C(=O)[C@H](CCSC)NC(=O)[C@H](Cc1ccc(OP(=O)(O)O)cc1)NC(=O)[C@H](CC(=O)O)NC(=O)CNC(=O)[C@H](CO)NC(=O)CNC(=O)[C@H](CCCCN)NC(=O)[C@H](CCCNC(=N)N)NC(=O)CN)C(=O)N[C@@H](CO)C(=O)N1CCC[C@H]1C(=O)N[C@@H](CCCCN)C(=O)N[C@@H](CO)C(=O)O` [p0IRS1], the Kd was 23.3 ± 0.9 µM in assay [1] and 36 ± 2.44 µM in assay [2]. For the same compound, the “Kd (competitive titration)” value in assay [1] is on record as “bound stronger”.

By Kd is commonly meant the equilibrium constant for the complex coming apart. A higher Kd goes with lower affinity.
